Results published in US7629156B2, “Ethanol production in fermentation of mixed sugars containing xylose” (E.I. du Pont de Nemours and Company, priority 2006, dated 2009).

Columns and labels:
Format in all cases: cell-based, Zymomonas mobilis
ZW658 strain [1] = test: 1-liter fermentor, ZW658 on glucose and xylose in the presence of sorbitol and acetate; conditions: 5.8 g/L acetate, 10 mM sorbitol
Description: (§1) Approximately 1 ml of well mixed sample was obtained from flask or fermentor. First the sample absorbance was measured directly with a spectrophotometer (Amersham Biosciences Ultrospec 3300pro, GE Healthcare, Piscataway, N.J., USA). If the reading was lower than 0.6 unit, no dilution was needed. If the reading was higher than 0.6 unit, the sample was diluted with culture medium until the actual reading was in the range of 0.1 to 0.6 unit. The original OD was calculated from the dilution ratio and the actual reading.
(§2) The analysis of sugars, acetate, ethanol, and other by-products was done with an Agilent 1100 series HPLC and Agilent ChemStation software for LC 3D. The column was BioRad Aminex HPX-87H(HPLC Organic Analysis Column 125-0140) with BioRad Micro-Guard Cartridge Cation-H (125-0129). The operating conditions were:
(§3) Glycerol stock of seed frozen at −80° C. was thawed, then inoculated into sterile culture tubes with mixture of 60 g/L glucose, 20 g/L xylose, 10 g/L yeast extract (YE), 10 g/L KH2PO4, 2 g/L (NH4)2SO4, and 1 g/L MgSO4. Initial pH was adjusted to 5.5 with 4 N KOH. This revival culture was grown statically overnight at 37° C. It was transferred into shake flasks with 75 g/L glucose, 25 g/L xylose, 10 g/L yeast extract (YE), 10 g/L KH2PO4, 2 g/L (NH4)2SO4, and 1 g/L MgSO4. Initial pH was adjusted to 5.5 with 4 N KOH. Growth was monitored by measuring OD600. When the OD reached approximately 5, a certain volume of the seed was withdrawn into a sterile syringe for inoculation.
In a sterilized 1-liter fermentor (BIOSTAT® B-DCU system, Sartorius BBI System Inc., Bethlehem, Pa., USA), 50 ml of ZW658 strain seed culture at OD600 of approximately 5 was inoculated into 450 ml of aqueous solution containing sugars and medium. The final mixed broth contained 99.0 g/L glucose, 82.7 g/L xylose, 5.8 g/L acetate (in the form of potassium acetate), 10 g/L yeast extract (YE), 2 g/L KH2PO4, and 10 mM sorbitol. pH was adjusted to 5.5 with 4 N KOH solution. Mixing speed was set at 150 rpm. Fermentation was conducted at 33° C. and pH 5.5. Samples were taken periodically. Samples were filtered through 0.22 micron filters, and the filtrates were analyzed by HPLC as described in General Methods for compounds including glucose, xylose, ethanol, and acetate. Samples were also diluted with medium (as described in General Methods) and the OD600 was measured to monitor cell growth.

ZW658 strain [2] = test: Flask growth of ZW658 on glucose and xylose with sorbitol 0.5-10 mM; conditions: after 14.25 hours, total sugar about 160 g/L
Description: as §1, §3
In five sterilized 125 ml Erlenmeyer culture flasks (Cat. No. 30180-036, VWR International, USA), 10 ml of ZW658 strain seed culture at OD600 of approximately 5 (measured at 600 nm) was inoculated into each flask with 100 ml of aqueous solution containing 100 g/L glucose, 80 g/L xylose, 10 g/L yeast extract (YE), 10 g/L KH2PO4, 2 g/L (NH4)2SO4, 1 g/L MgSO4.7H2O, and various concentrations of sorbitol (0, 0.5, 1, 2, and 10 mM). After inoculation, the total sugar concentration was about 160 g/L due to dilution by the seed culture. Initial pH was adjusted to 5.5 with 4 N KOH solution. Mixing speed was set at 150 rpm. Fermentation was conducted at 33° C. and pH was not controlled. Samples were taken periodically. Samples were diluted with medium (as described in General Methods) and the OD600 was measured to monitor cell growth. […] Cultures with higher concentration of sorbitol, in this range, grew faster and better. After 14.25 hours, the OD600 were 4.19, 7.10, 8.08, 8.62, and 10.1, respectively, for sorbitol concentrations of 0, 0.5, 1, 2, and 10 mM.

ZW658 strain [3] = test: Tube fermentation of ZW658 on glucose and xylose with various sugar alcohols (Example 13); conditions: sugar alcohol in the medium vs control
Description: as §1, §2
In eight sterilized 50 ml screw-cap centrifuge tubes (Cat. No. 21008-178, VWR International, USA), 200 μl of ZW658 strain glycerol stock at OD600 of approximately 10 was inoculated into each flask with 25 ml of aqueous solution containing 92 g/L glucose, 82 g/L xylose, 10 g/L yeast extract (YE), 2 g/L KH2PO4, 1 g/L MgSO4.7H2O, and either 10 mM of sorbitol, arabitol, adonitol (also called ribitol), or galactitol; or 50 mM of arabitol, adonitol, or galactitol. The control had no sugar alcohol added. Initial pH was adjusted to 5.5 with 4 N H3PO4 solution. Fermentation was conducted at 33° C. and pH was not controlled. Samples were taken periodically between 0 and 40 hr. Samples were filtered through 0.22 micron filters, and the filtrates were analyzed by HPLC as described in General Methods for glucose, xylose, xylitol, and ethanol. Samples were diluted with medium (as described in General Methods) and the OD600 was measured to monitor cell growth. Results of growth and glucose utilization are given in FIGS. 20A and 20B, respectively. Results of xylose utilization and ethanol production are given in FIGS. 21A and 21B, respectively. Cultures with sorbitol or galactitol grew much faster and better than the control. Cultures with adonitol also grew better. After 40 hours, the OD600 were 7 to 8, for cultures supplemented with sorbitol or galactitol; the OD600 were about 5, for cultures supplemented with adonitol; while the OD600 were less than 1 for other cultures. […] The presence of sorbitol, galactitol, or adonitol allowed more xylose utilization, without production of xylitol.

OC[C@@H](O)[C@@H](O)[C@H](O)[C@@H](O)CO [sorbitol]
by product xylitol concentration (ZW658 strain [1]; after 63.75 hours (stationary phase)): 3.55 g/L
OD600 cells grew to (ZW658 strain [1]; after 63.75 hours): 6.4
ethanol concentration (ZW658 strain [1]; after 63.75 hours): 70.0 g/L
xylose concentration (ZW658 strain [1]; after 63.75 hours): 29.6 g/L
glucose concentration (ZW658 strain [1]; after 63.75 hours, 99.0 g/L glucose, 82.7 g/L xylose, 33° C., pH 5.5): 0 g/L
OD600 (ZW658 strain [2]; 0.5 mM sorbitol): 7.10
OD600 (ZW658 strain [2]; 1 mM sorbitol): 8.08
OD600 (ZW658 strain [2]; 2 mM sorbitol): 8.62
OD600 (ZW658 strain [2]; 10 mM sorbitol): 10.1
ethanol production (ZW658 strain [3]): ethanol production was also better
xylose utilization (ZW658 strain [3]): More xylose was utilized
